Measured values from EP0293900B1, “Phenolic thioethers, sulfoxides, and disulfides as inhibitors of 5-lipoxygenase” (G.D. Searle & Co., priority 1987, dated 1988).

The compounds below were run against T1, 5-lipoxygenase (Rattus norvegicus, UniProt P12527) (assay: Inhibition of 5-lipoxygenase, in vitro (5-HETE synthesis from [1-14C]-arachidonic acid, RBL-1 supernatant)). Details: 100,000 x g supernatant of Rat Basophilic Leukemia Cell Homogenate (RBL-1); active = 30% or more inhibition of 5-HETE synthesis; initial screening 1 x 10⁻⁴M.
T1 construct: The 100,000 x g supernatant fraction of Rat Basophilic Leukemia Cell Homogenate (RBL-1) serves as a 5-lipoxygenase enzyme source; endogenous in cells; host or cells: RBL-1 (rat basophilic leukemia) cells, 100,000 x g supernatant of the homogenate
T1 sequence (P12527 1-673): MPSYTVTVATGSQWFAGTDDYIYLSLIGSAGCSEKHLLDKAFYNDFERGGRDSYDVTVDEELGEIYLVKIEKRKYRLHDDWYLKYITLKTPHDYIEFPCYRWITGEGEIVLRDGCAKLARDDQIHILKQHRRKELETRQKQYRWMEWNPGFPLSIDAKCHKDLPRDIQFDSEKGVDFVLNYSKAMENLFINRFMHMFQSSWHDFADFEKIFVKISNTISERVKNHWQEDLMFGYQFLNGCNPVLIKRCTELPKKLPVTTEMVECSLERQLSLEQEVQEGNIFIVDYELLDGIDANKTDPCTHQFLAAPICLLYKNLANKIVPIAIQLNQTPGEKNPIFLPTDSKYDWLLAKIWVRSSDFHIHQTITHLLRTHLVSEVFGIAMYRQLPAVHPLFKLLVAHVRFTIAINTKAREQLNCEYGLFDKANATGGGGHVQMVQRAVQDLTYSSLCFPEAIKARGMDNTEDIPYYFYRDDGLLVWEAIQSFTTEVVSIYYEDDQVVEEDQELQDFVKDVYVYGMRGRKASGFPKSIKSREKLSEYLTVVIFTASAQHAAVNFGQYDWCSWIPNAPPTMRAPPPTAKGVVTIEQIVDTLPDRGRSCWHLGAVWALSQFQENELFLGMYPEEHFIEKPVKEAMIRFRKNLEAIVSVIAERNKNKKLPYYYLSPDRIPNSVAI
Type: biochemical
Procedure: The compounds of the invention are evaluated with respect to 5-lipoxygenase inhibition according to the following assay procedure.
Inhibition of 5-lipoxygenase, in vitro: anti-inflammatory, anti-allergy activities.
The 100,000 x g supernatant fraction of Rat Basophilic Leukemia Cell Homogenate (RBL-1) serves as a 5-lipoxygenase enzyme source. The enzyme is incubated with [1-¹⁴C)-arachidonic acid and Ca⁺⁺ in the presence and absence of test compound. The product of 5-lipoxygenase, 5-hydroxyeicosatetraenoic acid (5-HETE), is separated by thin-layer chromatography and measured by radioactivity. A compound inhibiting 5-HETE synthesis by 30% or more is considered active at that concentration. Initial screening doses are 1 x 10⁻⁴M.

Row | 5-Lipoxygenase Inhibition, in vitro. IC₅₀ | Compound
1 | Inactive | COC(=O)CCS(=O)(=O)c1cc(C(C)(C)C)c(O)c(C(C)(C)C)c1 [Example 11, Methyl 3-[[3,5-bis(1,1 dimethylethyl)-4-hydroxyphenyl]sulfonyl]propanoate]

Same assay, conditions: 100,000 x g supernatant of Rat Basophilic Leukemia Cell Homogenate (RBL-1); active = 30% or more inhibition of 5-HETE synthesis; initial screening 1 x 10⁻⁴M; read-out: 5-Lipoxygenase Inhibition, in vitro. IC₅₀

Row | Compound | IC50 [nM]
2 | CC(C)(C)c1cc(SCCCCC(=O)O)cc(C(C)(C)C)c1O [Example 4, 5-[[3,5-bis(1,1-dimethylethyl)-4-hydroxyphenyl]thio]pentanoic acid] | 1100
3 | CCCC(Sc1cc(C(C)(C)C)c(O)c(C(C)(C)C)c1)C(=O)OCC (centres unmarked) [Example 7, Ethyl 2-[[3,5-bis(1,1-dimethylethyl)-4-hydroxyphenyl]thio]pentanoate] | 1300
4 | CCCC(Sc1cc(C(C)(C)C)c(O)c(C(C)(C)C)c1)C(=O)O (centres unmarked) [Example 8] | 6600
5 | COC(=O)CC[S+]([O-])c1cc(C(C)(C)C)c(O)c(C(C)(C)C)c1 (centres unmarked) [Example 10, Methyl 3-[[3,5-bis(1,1-dimethylethyl)-4-hydroxyphenyl]sulfinyl]propanoate] | 16500
6 | CC(C)(C)c1cc(SCCC(=O)O)cc(C(C)(C)C)c1O [Example 12, 3-[[3,5-bis(1,1-dimethylethyl)-4-hydroxyphenyl]thio]propanic acid] | 3400

The next lines start with the values.

Row | IC50 [nM] | Compound
7 | 1000 | CC(C)(C)c1cc(SCCCC(=O)O)cc(C(C)(C)C)c1O [Example 3, 4-[[3,5-bis(1,1-dimethylethyl)-4-hydroxyphenyl]thio] butanoic acid]
8 | 390 | CCOC(=O)C(C)Sc1cc(C(C)(C)C)c(O)c(C(C)(C)C)c1 (centres unmarked) [Example 5, Ethyl 2-[[3,5-bis(1,1-dimethylethyl)-4-hydroxyphenyl]thio]propanoate]
9 | 380 | COC(=O)CCSc1cc(C(C)(C)C)c(O)c(C(C)(C)C)c1 [Example 9, Methyl 3-[[3,5-bis(1,1-dimethylethyl)-4-hydroxyphenol]thio]propanoate]
10 | 260 | CCOC(=O)C=CCCSc1cc(C(C)(C)C)c(O)c(C(C)(C)C)c1 [Example 13, Ethyl 5-[[3,5-bis(1,1-dimethylethyl)-4-hydroxyphenyl]thio]-2-pentenoate]
11 | 400 | COC(=O)CSSc1cc(C(C)(C)C)c(O)c(C(C)(C)C)c1 [Example 14, Methyl [[3,5-bis(1,1-dimethylethyl)-4-hydroxyphenyl]dithio]acetate]
